Measured values: patent US20070128217A1 (priority 2003, published 2007)

Tests used:
[1] = test system: rabbit serum obtained by immunizing a rabbit with the SARS-CoV strain Frankfurt 1; format: binding; parameters: Binding of a rabbit serum to linear peptides / Binding of a rabbit serum to looped peptides / Rabbit serum linear peptides / Rabbit serum looped peptides / Binding of a rabbit serum to linear peptides of protein N of SARS-CoV Urbani (Rabbit serum linear peptides) / Binding of a rabbit serum to looped/cyclic peptides of protein N of SARS-CoV Urbani (Rabbit serum looped peptides): unit not given here
[2] = test system: antibodies in sera from SARS patients (sera 1a, 1b, 2, 6, 37, 62, London, SARS-yellow, SARS-green); format: binding, human; parameters: Binding of serum 6 to linear peptides of protein X1 of SARS-CoV Urbani / Binding of serum 37 to linear peptides of protein X1 of SARS-CoV Urbani / Binding of serum 6 to looped/cyclic peptide (PEPSCAN-ELISA) / Binding of serum 37 to looped/cyclic peptide (PEPSCAN-ELISA) / Binding of serum 37 to looped/cyclic peptides of protein X1 of SARS-CoV Urbani / Binding of serum 6 to linear peptides of protein X2 / Binding of serum 37 to linear peptides of protein X2 / Binding of serum 37 to looped/cyclic peptides of protein X2 of SARS-CoV Urbani / Binding of serum 6 to linear peptides of protein M of SARS-CoV Urbani / Binding of serum 37 to linear peptides of protein M of SARS-CoV Urbani / Binding of serum 6 to looped/cyclic peptides of protein M of SARS-CoV Urbani / Binding of serum 37 to looped/cyclic peptides of protein M of SARS-CoV Urbani / Binding of serum 6 to linear peptides of protein X3 of SARS-CoV Urbani / Binding of serum 37 to linear peptides of protein X3 of SARS-CoV Urbani / Binding of serum 37 to looped/cyclic peptides of protein X3 of SARS-CoV Urbani / Binding of serum 6 to linear peptides of protein X4 of SARS-CoV Urbani / Binding of serum 37 to linear peptides of protein X4 of SARS-CoV Urbani / Binding of serum 37 to looped/cyclic peptides of protein X4 of SARS-CoV Urbani / Binding of serum 6 to linear peptides of protein X5 of SARS-CoV Urbani / Binding of serum 37 to linear peptides of protein X5 of SARS-CoV Urbani / Binding of serum 37 to looped/cyclic peptides of protein X5 of SARS-CoV Urbani / Binding of serum 6 to linear peptides of protein N of SARS-CoV Urbani / Binding of serum 37 to linear peptides of protein N of SARS-CoV Urbani / Binding of serum 6 to linear peptide (PEPSCAN-ELISA) / Binding of serum 1a to looped/cyclic peptides of protein N of SARS-CoV Urbani / Binding of serum 1b to looped/cyclic peptides of protein N of SARS-CoV Urbani / Binding of serum 2 to looped/cyclic peptides of protein N of SARS-CoV Urbani / Binding of serum 6 to looped/cyclic peptides of protein N of SARS-CoV Urbani / Binding of serum 37 to looped/cyclic peptides of protein N of SARS-CoV Urbani / Binding of serum 62 to looped/cyclic peptides of protein N of SARS-CoV Urbani / Binding of serum London to looped/cyclic peptides of protein N of SARS-CoV Urbani / Binding of serum SARS-green to looped/cyclic peptides of protein N of SARS-CoV Urbani: unit not given here
[3] = test system: control sera (pooled serum of ten healthy LUMC hospital workers; commercial negative donor pooled serum from the Dutch bloodbank); format: binding, human; parameters: Binding of Control serum LUMC to linear peptides / Binding of Control serum Blood-bank to linear peptides / Binding of Control serum LUMC to looped peptides / Binding of Control Serum Blood-Bank to Looped peptides / Binding of Control serum LUMC to linear peptides of the protein M of SARS-CoV Urbani / Binding of Control serum Blood-bank to linear peptides of the protein M of SARS-CoV Urbani / Binding of Control serum LUMC to looped peptides of the protein M of SARS-CoV Urbani / Binding of Control Serum Blood-Bank to Looped peptides of the protein M of SARS-CoV Urbani: unit not given here

Sequence: CWKCKSKNPLLYDAN
- Binding of a rabbit serum to linear peptides [1]: 0.1
- Binding of a rabbit serum to looped peptides [1]: 0.5
- Binding of serum 1a to looped/cyclic peptide (PEPSCAN-ELISA) [2]: 0.7
- Binding of serum 1b to looped/cyclic peptide (PEPSCAN-ELISA) [2]: 0.6
- Binding of serum 2 to looped/cyclic peptide (PEPSCAN-ELISA) [2]: 0.5
- Binding of serum 6 to looped/cyclic peptide (PEPSCAN-ELISA) [2]: 0.4
- Binding of serum 37 to looped/cyclic peptide (PEPSCAN-ELISA) [2]: 0.7
- Binding of serum 62 to looped/cyclic peptide (PEPSCAN-ELISA) [2]: 0.6
- Binding of serum London to looped/cyclic peptide (PEPSCAN-ELISA) [2]: 0.3
- Binding of serum SARS-green to looped/cyclic peptide (PEPSCAN-ELISA) [2]: 0.2
- Binding of serum SARS-yellow to looped/cyclic peptide (PEPSCAN-ELISA) [2]: 0.6
- Recognition of the peptide by sera of SARS-CoV infected individuals, and form (linear, looped/cyclic) in which it is recognized [2]: recognized in linear form
- Binding of Control Serum Blood-Bank to Looped peptides [3]: 0.7
- Binding of Control serum Blood-bank to linear peptides [3]: 0.7
- Binding of Control serum LUMC to linear peptides [3]: 0.8
- Binding of Control serum LUMC to looped peptides [3]: 0.7

Sequence: DFQVTIAEILIIIMR
- Rabbit serum linear peptides [1]: 0.3
- Rabbit serum looped peptides [1]: 0.3
- Binding of serum 1a to linear peptides of protein X3 of SARS-CoV Urbani [2]: 0.7
- Binding of serum 1a to looped/cyclic peptides of protein X3 of SARS-CoV Urbani [2]: 0.7
- Binding of serum 1b to linear peptides of protein X3 of SARS-CoV Urbani [2]: 0.5
- Binding of serum 1b to looped/cyclic peptides of protein X3 of SARS-CoV Urbani [2]: 0.4
- Binding of serum 2 to linear peptides of protein X3 of SARS-CoV Urbani [2]: 0.6
- Binding of serum 2 to looped/cyclic peptides of protein X3 of SARS-CoV Urbani [2]: 0.7
- Binding of serum 6 to linear peptides of protein X3 of SARS-CoV Urbani [2]: 0.5
- Binding of serum 6 to looped/cyclic peptides of protein X3 of SARS-CoV Urbani [2]: 0.4
- Binding of serum 37 to linear peptides of protein X3 of SARS-CoV Urbani [2]: 0.6
- Binding of serum 37 to looped/cyclic peptides of protein X3 of SARS-CoV Urbani [2]: 0.7
- Binding of serum 62 to linear peptides of protein X3 of SARS-CoV Urbani [2]: 0.6
- Binding of serum 62 to looped/cyclic peptides of protein X3 of SARS-CoV Urbani [2]: 0.5
- Binding of serum London to linear peptides of protein X3 of SARS-CoV Urbani [2]: 0.6
- Binding of serum London to looped/cyclic peptides of protein X3 of SARS-CoV Urbani [2]: 0.2
- Binding of serum SARS-green to linear peptides of protein X3 of SARS-CoV Urbani [2]: 0.4
- Binding of serum SARS-green to looped/cyclic peptides of protein X3 of SARS-CoV Urbani [2]: 0.2
- Binding of serum SARS-yellow to linear peptides of protein X3 of SARS-CoV Urbani [2]: 0.5
- Binding of serum SARS-yellow to looped/cyclic peptides of protein X3 of SARS-CoV Urbani [2]: 0.7
- Binding of Control Serum Blood-Bank to Looped peptides of the protein X3 of SARS-CoV Urbani [3]: 0.8
- Binding of Control serum Blood-bank to linear peptides of the protein X3 of SARS-CoV Urbani [3]: 0.8
- Binding of Control serum LUMC to linear peptides of the protein X3 of SARS-CoV Urbani [3]: 0.6
- Binding of Control serum LUMC to looped peptides of the protein X3 of SARS-CoV Urbani [3]: 0.7

Sequence: DIKDLPKEITVATSR
- Rabbit serum linear peptides [1]: 0.2
- Rabbit serum looped peptides [1]: 0.3
- Binding of serum 1a to linear peptides of protein M of SARS-CoV Urbani [2]: 0.7
- Binding of serum 1a to looped/cyclic peptides of protein M of SARS-CoV Urbani [2]: 0.6
- Binding of serum 1b to linear peptides of protein M of SARS-CoV Urbani [2]: 0.5
- Binding of serum 1b to looped/cyclic peptides of protein M of SARS-CoV Urbani [2]: 0.6
- Binding of serum 2 to linear peptides of protein M of SARS-CoV Urbani [2]: 0.5
- Binding of serum 2 to looped/cyclic peptides of protein M of SARS-CoV Urbani [2]: 0.7
- Binding of serum 6 to linear peptides of protein M of SARS-CoV Urbani [2]: 0.5
- Binding of serum 6 to looped/cyclic peptides of protein M of SARS-CoV Urbani [2]: 0.8
- Binding of serum 37 to linear peptides of protein M of SARS-CoV Urbani [2]: 0.6
- Binding of serum 37 to looped/cyclic peptides of protein M of SARS-CoV Urbani [2]: 0.9
- Binding of serum 62 to linear peptides of protein M of SARS-CoV Urbani [2]: 0.5
- Binding of serum 62 to looped/cyclic peptides of protein M of SARS-CoV Urbani [2]: 0.7
- Binding of serum London to linear peptides of protein M of SARS-CoV Urbani [2]: 0.4
- Binding of serum London to looped/cyclic peptides of protein M of SARS-CoV Urbani [2]: 0.3
- Binding of serum SARS-green to linear peptides of protein M of SARS-CoV Urbani [2]: 0.5
- Binding of serum SARS-green to looped/cyclic peptides of protein M of SARS-CoV Urbani [2]: 0.4
- Binding of serum SARS-yellow to linear peptides of protein M of SARS-CoV Urbani [2]: 0.2
- Binding of serum SARS-yellow to looped/cyclic peptides of protein M of SARS-CoV Urbani [2]: 0.7
- Binding of Control Serum Blood-Bank to Looped peptides of the protein M of SARS-CoV Urbani [3]: 0.8
- Binding of Control serum Blood-bank to linear peptides of the protein M of SARS-CoV Urbani [3]: 0.6
- Binding of Control serum LUMC to linear peptides of the protein M of SARS-CoV Urbani [3]: 0.5
- Binding of Control serum LUMC to looped peptides of the protein M of SARS-CoV Urbani [3]: 0.9
